According to ChEMBL document CHEMBL1201862, “PubChem BioAssay data set” (2004):
The source made the active and inactive calls.

Key:
[1] = Counterscreen for inhibitors of Trypanosoma brucei methionyl tRNA synthetase (MetRS): Luminescence-based cell-based high throughput dose response assay to identify compounds that are cytotoxic to Jurkat human T lymphocyte cells.; format: functional
[2] = target: T1, Methionyl-tRNA synthetase, putative (Trypanosoma brucei brucei, UniProt Q38C91); format: functional, Trypanosoma brucei brucei strain 927/4 GUTat10.1;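 also: Read-out by fluorescence polarization, run as a confirmatory high-throughput counterscreen; potency of MetRS inhibitors measured by reduced AMP formation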
T1 sequence (Q38C91 whole entry): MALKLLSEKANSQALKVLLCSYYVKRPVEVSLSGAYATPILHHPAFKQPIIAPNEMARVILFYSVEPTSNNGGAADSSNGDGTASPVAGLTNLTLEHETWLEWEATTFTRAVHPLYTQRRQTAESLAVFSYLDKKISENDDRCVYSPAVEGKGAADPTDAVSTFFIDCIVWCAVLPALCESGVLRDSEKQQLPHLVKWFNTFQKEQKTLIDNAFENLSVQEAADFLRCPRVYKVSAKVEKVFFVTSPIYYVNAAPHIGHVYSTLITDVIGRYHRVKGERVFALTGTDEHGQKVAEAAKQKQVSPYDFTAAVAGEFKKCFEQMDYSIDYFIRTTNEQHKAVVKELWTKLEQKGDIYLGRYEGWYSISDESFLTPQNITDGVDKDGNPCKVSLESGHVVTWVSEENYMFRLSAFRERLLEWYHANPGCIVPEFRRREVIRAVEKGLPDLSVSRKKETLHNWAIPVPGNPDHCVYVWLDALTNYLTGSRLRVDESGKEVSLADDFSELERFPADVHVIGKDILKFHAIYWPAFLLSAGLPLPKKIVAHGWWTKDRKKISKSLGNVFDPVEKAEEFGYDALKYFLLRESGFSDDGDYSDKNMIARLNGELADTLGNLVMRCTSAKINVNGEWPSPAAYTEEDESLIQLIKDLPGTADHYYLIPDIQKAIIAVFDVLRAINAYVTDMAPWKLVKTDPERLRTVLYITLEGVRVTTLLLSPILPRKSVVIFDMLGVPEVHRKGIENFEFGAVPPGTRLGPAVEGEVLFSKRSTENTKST

[3] = test system: Streptococcus sp. 'group A'; test: growth inhibition of control SK(-) GAS strain, dose response, counter-screen for streptokinase expression inhibitor project, luminescence, kanamycin, BacTiterGlo, confirmation (AID 1900); format: functional, organism-based
HEK293 = test: inhibitors of LMP1-driven NF-kB reporter, dose response, cell-based, HEK293, luciferase, cherry-pick (AID 588343); format: functional; conditions: Homo sapiens
Genome polyprotein = Genome polyprotein (dengue virus type 2, UniProt P29990); test: Dengue-2 NS5 methyltransferase inhibitors, primary screen, biochemical, confirmation dose response (AID 588689); format: functional
[4] = target: T2, Heat shock factor protein 1 (Mus musculus, UniProt P38532); test: inhibition of MG132-induced HSE-luciferase signal, confirmation, cell-based, NIH3T3, luminescence, dose retest (AID 2382); format: functional;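 also: NIH3T3 fibroblasts with HSF1-driven luciferase reporter stressed by proteasome inhibitor MG132; luminescence from HSF1-driven luciferase expression after 8 hours of MG132 stress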
T2 sequence (P38532 whole entry): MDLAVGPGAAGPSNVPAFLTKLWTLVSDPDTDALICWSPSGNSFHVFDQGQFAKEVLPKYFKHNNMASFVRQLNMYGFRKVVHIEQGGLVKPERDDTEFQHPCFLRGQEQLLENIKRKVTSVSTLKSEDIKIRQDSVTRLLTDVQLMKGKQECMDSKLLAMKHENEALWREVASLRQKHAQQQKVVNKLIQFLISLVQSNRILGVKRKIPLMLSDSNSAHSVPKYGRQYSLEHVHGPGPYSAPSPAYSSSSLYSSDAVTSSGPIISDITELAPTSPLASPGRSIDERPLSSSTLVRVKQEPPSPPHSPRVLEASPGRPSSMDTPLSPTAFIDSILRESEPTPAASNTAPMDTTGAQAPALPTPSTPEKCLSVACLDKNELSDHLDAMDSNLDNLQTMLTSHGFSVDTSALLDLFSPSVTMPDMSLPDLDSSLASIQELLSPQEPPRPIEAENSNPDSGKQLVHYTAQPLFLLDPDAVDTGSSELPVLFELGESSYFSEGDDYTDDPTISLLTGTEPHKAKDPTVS

Streptococcus = test: Group A Streptococcus viability loss, dose response, counter-screen for streptokinase expression inhibitor project, luminescence, BacTiterGlo (AID 1915); format: functional, organism-based;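 also: potency for reduction of bacterial viability or growth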
Streptokinase A = target: T3, Streptokinase A (Streptococcus pyogenes serotype M1, UniProt P10520); test: S. pyogenes streptokinase expression inhibitors, potency, dose response, plasminogen activation absorbance, OD405 (AID 1914); format: functional, Streptococcus pyogenes M1 GAS;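 also: secreted streptokinase activity via plasminogen activation per viability signal from cell pellet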
T3 sequence (P10520 whole entry): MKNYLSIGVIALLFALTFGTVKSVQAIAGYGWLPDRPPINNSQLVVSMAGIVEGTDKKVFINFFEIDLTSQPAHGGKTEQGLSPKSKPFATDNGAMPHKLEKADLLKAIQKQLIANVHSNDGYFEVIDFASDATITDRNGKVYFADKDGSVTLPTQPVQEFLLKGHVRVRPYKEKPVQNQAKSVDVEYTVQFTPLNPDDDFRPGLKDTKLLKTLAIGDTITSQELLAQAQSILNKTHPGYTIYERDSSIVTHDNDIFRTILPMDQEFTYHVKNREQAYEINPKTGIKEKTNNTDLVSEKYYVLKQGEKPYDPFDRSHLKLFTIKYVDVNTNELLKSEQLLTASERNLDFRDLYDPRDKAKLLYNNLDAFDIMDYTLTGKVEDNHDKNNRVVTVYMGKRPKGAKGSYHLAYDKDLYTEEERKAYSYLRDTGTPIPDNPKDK

[5] = HepG2 cell cytotoxicity, dose response, cytotoxicity control for Shn3 inhibitor project, CellTiter-Glo, cherry-picked (AID 624134); format: functional, cell-based
[6] = control 3'UTR Renilla luciferase suppression, dose response, counter-screen for Shn3 inhibitor project, cell-based, Clone20-Shn3RL, cherry-picked (AID 624133); format: functional
[7] = Shn3 3'UTR reporter inhibitors, dose response, cell-based, Clone20 osteoblasts, firefly luciferase, cherry-picked (AID 624132); format: functional;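 also: firefly luciferase luminescence from reporter carrying the Shn3 3'UTR in osteoblasts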
[8] = target: T4, Sentrin-specific protease 6 (Homo sapiens, UniProt Q9GZR1); format: functional;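 also: Luminescence-based dose-response confirmatory assay of SENP6 inhibition, following up an ultra-high-throughput screen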
T4 sequence (Q9GZR1 whole entry): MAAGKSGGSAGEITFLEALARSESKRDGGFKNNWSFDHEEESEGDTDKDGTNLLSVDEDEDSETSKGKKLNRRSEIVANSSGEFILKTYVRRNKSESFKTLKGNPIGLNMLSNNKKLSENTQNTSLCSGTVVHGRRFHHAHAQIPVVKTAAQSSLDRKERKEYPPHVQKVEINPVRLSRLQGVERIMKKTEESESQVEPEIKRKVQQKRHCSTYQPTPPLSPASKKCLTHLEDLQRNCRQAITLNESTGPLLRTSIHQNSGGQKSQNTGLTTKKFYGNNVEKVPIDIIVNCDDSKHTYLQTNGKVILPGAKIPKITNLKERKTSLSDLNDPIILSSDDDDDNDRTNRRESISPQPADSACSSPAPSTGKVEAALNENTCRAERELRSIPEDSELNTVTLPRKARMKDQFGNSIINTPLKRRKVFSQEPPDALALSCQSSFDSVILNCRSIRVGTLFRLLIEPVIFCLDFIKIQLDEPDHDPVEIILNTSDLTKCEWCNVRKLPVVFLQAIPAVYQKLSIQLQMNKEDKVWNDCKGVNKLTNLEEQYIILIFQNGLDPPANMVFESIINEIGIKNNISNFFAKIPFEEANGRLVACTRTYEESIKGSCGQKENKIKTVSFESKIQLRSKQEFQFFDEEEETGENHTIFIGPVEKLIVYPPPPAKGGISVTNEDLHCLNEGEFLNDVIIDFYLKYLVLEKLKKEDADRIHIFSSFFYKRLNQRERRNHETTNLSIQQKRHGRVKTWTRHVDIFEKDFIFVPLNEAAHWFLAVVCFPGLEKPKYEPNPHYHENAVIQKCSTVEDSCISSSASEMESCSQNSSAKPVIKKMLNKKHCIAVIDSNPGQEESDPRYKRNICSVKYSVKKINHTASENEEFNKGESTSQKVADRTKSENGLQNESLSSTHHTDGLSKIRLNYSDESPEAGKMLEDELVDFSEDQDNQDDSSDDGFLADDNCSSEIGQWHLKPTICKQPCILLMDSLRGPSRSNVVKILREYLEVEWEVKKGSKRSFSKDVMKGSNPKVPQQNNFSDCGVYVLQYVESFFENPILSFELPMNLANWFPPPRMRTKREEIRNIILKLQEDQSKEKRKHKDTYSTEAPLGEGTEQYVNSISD

Caspase-3 = target: T5, Caspase-3 (Homo sapiens, UniProt P42574); format: functional;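 also: Dose-response selectivity test against caspase-3 for candidate inhibitors of sentrin-specific proteases (SENPs)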
T5 sequence (P42574 whole entry): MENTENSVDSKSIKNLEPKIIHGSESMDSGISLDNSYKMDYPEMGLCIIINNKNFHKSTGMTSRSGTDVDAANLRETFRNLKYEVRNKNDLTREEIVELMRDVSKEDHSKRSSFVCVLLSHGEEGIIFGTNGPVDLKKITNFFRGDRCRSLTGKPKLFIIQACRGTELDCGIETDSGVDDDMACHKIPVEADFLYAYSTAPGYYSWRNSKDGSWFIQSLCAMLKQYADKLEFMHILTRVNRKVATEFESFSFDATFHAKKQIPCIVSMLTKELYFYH

[9] = target: T6, Sentrin-specific protease 7 (Homo sapiens, UniProt Q9BQF6); format: functional;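 also: Luminescence-based dose-response confirmation of ultra-high-throughput screening hits, measuring inhibition of SENP7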
T6 sequence (Q9BQF6 whole entry): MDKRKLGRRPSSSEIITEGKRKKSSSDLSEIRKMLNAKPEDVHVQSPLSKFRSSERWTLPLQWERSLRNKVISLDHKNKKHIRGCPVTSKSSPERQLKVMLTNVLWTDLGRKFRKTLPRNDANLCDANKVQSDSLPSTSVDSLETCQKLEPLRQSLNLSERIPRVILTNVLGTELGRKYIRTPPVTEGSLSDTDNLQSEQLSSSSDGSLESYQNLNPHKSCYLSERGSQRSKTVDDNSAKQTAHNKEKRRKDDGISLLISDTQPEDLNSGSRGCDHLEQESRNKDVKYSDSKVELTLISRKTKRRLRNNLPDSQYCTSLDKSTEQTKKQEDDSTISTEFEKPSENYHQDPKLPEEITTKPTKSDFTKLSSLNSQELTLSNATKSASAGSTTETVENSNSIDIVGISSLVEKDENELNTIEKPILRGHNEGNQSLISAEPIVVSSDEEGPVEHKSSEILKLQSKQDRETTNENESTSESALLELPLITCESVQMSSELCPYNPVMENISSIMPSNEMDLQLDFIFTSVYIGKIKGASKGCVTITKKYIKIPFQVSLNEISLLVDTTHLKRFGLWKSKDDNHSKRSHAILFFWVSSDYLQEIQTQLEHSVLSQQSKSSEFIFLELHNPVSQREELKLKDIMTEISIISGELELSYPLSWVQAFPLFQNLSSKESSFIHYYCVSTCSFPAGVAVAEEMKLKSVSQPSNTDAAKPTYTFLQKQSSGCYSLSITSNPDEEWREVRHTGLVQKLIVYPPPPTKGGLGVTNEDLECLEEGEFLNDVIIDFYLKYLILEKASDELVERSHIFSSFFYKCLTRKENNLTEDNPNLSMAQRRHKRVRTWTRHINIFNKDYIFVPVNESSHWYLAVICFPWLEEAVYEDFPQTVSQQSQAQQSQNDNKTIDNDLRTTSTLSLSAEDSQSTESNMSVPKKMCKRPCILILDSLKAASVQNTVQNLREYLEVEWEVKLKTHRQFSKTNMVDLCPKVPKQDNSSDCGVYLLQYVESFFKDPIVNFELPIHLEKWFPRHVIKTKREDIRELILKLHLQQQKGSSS

[10] = target: T7, Sentrin-specific protease 8 (Homo sapiens, UniProt Q96LD8); format: functional;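 also: luminescence read-out of SENP8 inhibition, dose-response confirmation following an ultra-high-throughput screen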
T7 sequence (Q96LD8 whole entry): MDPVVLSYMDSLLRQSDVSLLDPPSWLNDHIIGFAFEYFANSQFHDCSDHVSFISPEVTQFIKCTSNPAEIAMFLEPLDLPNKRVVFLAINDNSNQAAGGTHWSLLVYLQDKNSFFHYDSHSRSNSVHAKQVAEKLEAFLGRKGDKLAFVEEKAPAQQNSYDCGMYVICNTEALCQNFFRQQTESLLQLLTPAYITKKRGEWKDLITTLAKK

[11] = target: T8, Calpain-2 catalytic subunit (Sus scrofa, UniProt P43367); test: pig calpain II inhibitor potency, dose response, biochemical, fluorogenic peptide substrate (AID 1420); format: functional
T8 sequence (P43367 whole entry): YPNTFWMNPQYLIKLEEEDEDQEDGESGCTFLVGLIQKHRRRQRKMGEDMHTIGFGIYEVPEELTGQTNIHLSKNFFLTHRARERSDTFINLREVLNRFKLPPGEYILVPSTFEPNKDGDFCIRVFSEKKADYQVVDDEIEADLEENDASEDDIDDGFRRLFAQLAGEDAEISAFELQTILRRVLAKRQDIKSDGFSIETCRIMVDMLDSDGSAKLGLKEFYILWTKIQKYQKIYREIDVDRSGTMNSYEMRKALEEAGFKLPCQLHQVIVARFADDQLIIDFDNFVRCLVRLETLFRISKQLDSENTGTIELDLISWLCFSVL

Sequence of Genome polyprotein (P29990 2492-3391 limits assumed): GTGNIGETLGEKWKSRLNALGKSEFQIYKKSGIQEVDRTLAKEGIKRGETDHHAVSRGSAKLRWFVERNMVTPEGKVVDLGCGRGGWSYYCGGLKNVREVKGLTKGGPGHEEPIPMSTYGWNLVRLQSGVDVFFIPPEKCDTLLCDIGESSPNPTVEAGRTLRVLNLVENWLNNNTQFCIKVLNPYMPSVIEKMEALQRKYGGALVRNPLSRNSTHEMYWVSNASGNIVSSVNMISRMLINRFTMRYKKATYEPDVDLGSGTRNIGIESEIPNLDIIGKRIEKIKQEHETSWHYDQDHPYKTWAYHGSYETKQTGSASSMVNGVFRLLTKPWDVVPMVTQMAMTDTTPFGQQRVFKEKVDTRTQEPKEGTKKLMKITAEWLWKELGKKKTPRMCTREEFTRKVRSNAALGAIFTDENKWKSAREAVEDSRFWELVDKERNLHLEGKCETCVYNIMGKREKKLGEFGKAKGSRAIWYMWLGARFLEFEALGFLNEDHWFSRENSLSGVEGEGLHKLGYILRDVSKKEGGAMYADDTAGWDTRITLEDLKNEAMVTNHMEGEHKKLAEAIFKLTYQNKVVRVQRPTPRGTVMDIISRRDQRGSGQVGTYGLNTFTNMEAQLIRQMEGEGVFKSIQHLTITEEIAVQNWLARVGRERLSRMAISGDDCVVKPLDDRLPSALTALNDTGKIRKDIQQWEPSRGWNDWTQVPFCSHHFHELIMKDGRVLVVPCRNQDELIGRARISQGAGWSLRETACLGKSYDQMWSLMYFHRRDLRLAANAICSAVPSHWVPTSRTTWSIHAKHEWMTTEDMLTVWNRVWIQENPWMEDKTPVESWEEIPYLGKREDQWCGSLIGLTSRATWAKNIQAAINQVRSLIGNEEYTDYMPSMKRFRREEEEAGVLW

Row | Compound | AC50 (HEK293) | IC50 [8] | IC50 (Caspase-3) | IC50 [9] | IC50 [10] | other results
1 | O=C(Nc1cccnc1)c1ccc(COc2cc(Cl)ccc2Cl)o1 |  |  |  |  |  | IC50 [1]: 12.8 µM (inactive); IC50 [2]: 23.5 µM (inactive)
2 | O=C(O)CN1C(=O)/C(=C\c2ccccc2OCc2ccc(Cl)cc2Cl)SC1=S | 12.7 µM (active) |  |  |  |  | EC50 [3]: 4.28 µM (active); IC50 (Genome polyprotein): 87.6 µM (active); EC50 [4]: 2.58 µM (active); EC50 (Streptococcus): 32.4 µM (active); EC50 (Streptokinase A): 17.9 µM (inconclusive)
3 | Fc1ccc2[nH]c3c(N4CCN(c5ccccc5)CC4)ncnc3c2c1 | 6.19 µM (active) |  |  |  |  | AC50 [5]: 31.5 µM (active); AC50 [6]: 5.5 µM (active); AC50 [7]: 3.78 µM (active)
4 | CCOC(=O)c1c(C)[nH]c(N=Nc2cccc(C)c2)c1C |  | 18 µM (active) | 40.3 µM (active) | 5.37 µM (active) | 14.7 µM (active) | 
5 | CCCc1ccc(OC(=O)c2ccc(O)cc2Cl)cc1 |  | 8.84 µM (active) | 38.4 µM (active) | 8.1 µM (active) | 9.08 µM (active) | IC50 [11]: 3.76 µM (not active)
6 | Nc1ccccc1C#Cc1ccc([N+](=O)[O-])cc1 |  | 31 µM (active) | 23.2 µM (active) | 6.02 µM (active) | 80 µM (active) | 
7 | O=C(N/N=C/c1cccc(O)c1)c1ccc2c(c1)OCCO2 | 0.889 µM (active) |  |  |  |  | 
